Test results: patent US9962364B2, “Wound healing accelerator” (priority 2012, dated 2018)

Test system: mouse-derived 3T3-L1 fibroblasts
Assay: Cell growth of mouse fibroblasts by MTT assay after treating for one minute (Tests 1, 2, 4)
Format: cell-based
Settings: treatment for 1 minute, then 24 hours of culture, versus physiological saline control
Description: Specifically, after 20 hours of culture, 10 μl of MTT reagent (from Trevigen Inc.) was added to each well and the cells were further cultured for 4 hours under conditions of 37° C. and 5% CO2. After the culture, 100 μl of the Detergent Reagent (Trevigen Inc.) was each added and the cells were left in the dark overnight at room temperature. The absorbance at 595 nm was then determined using a microplate reader (FilterMaxTM F5 Multi-Mode Microplate Reader, Molecular Devices, LLC.). […] The absorbance of the control group in Test 1 was 0.289±0.016. Gallic acid (from Tokyo Chemical Industry Co., Ltd.), caffeic acid (from Tokyo Chemical Industry Co., Ltd.), (+)-catechin (from Tokyo Chemical Industry Co., Ltd.) and chlorogenic acid (from Sigma-Aldrich Co. LLC.) were assayed. […] The absorbance of the control group in Test 2 was 0.196±0.011. Green tea extract (from MARUZEN PHARMACEUTICALS CO., LTD.) was assayed. […] The absorbance of the control group in Test 4 was 0.276±0.010.

## O=C(O)c1cc(O)c(O)c(O)c1 [gallic acid]
  growth of fibroblasts (extent of cell growth by MTT assay): no growth of fibroblasts was observed
